Ends that are not written are not given here.
Assays:
GPRALS2 [1] = assay: cAMP production (competitive immunoassay) in stable CHO cells expressing GPRALS2; type: cell-based, Anopheles coluzzii; conditions: 1 x PBS/1 mM IBMX, 30 min at 37°C, cryptate labelled anti-cAMP antibody, triplicate on three occasions
Description: (§1) The amplified insect receptors included the initiation and termination codons but were not cloned in frame with vector tag proteins. The recombinant constructs were used to transfect mammalian CHO cells that had been maintained in complete Dulbecco’s modified Eagle’s medium (DMEM, Sigma, Spain) containing 4.5 g/L glucose, 110 mg/L sodium pyruvate and L-glutamine and supplemented with 10% sterile foetal bovine serum and 0.1% penicillin: streptomycin antibiotic mix (10.000 U: 10 mg/ml, Sigma) and 250μg/ml sterile filtered amphotericin B solution (1:100 dilution, Sigma, Spain). […] 72 h after incubation, transformed cells were selected by supplementing medium with 800μg/ml of the antibiotic Geneticin (G418 sulphate, GibcoBRL, USA) and cell recovery was monitored daily and the medium changed until no cell death was observed. […]
(§2) GPRALS1 and GPRALS2 stable CHO cell lines were stimulated with Ano_AST-A1 and Ano_AST-A2 peptides, the B. germanica BLAST-2 peptide and rat GAL and sea bass KISS peptides and iCa^2+ release and cAMP production were measured.
(§3) The amount of cAMP produced was determined using a competitive immunoassay with a cryptate labelled anti-cAMP antibody (Cisbio, France) and following the manufactures protocol. […]
(§4) Quantitative expression data is presented as mean ± SEM of cDNA from 3 independent experiments analysed in duplicate. […]

GPRALS1 [2] = assay: iCa^2+ release (Fluo-4 NW) in stable CHO cells expressing GPRALS1; type: cell-based, Anopheles coluzzii; conditions: 1 nM to 1 μM (BLAST-2 0.5 μM to 0.005 μM)
Description: (§5) The amplified insect receptors included the initiation and termination codons but were not cloned in frame with vector tag proteins. The recombinant constructs were used to transfect mammalian CHO cells that had been maintained in complete Dulbecco’s modified Eagle’s medium (DMEM, Sigma, Spain) containing 4.5 g/L glucose, 110 mg/L sodium pyruvate and L-glutamine and supplemented with 10% sterile foetal bovine serum and 0.1% penicillin: streptomycin antibiotic mix (10.000 U: 10 mg/ml, Sigma) and 250μg/ml sterile filtered amphotericin B solution (1:100 dilution, Sigma, Spain). One day prior to transfection, 2–3 x10^5 cells were seeded into 6 well plates (Sarstedt, Portugal) and transfected using Fugene 6 reagent (1: 6 DNA: Fugene, Roche, Germany) according to the manufacturer’s protocol. The efficiency and success of cell transfection was estimated by performing a simultaneous transfection with a plasmid encoding a fluorescent protein. 72 h after incubation, transformed cells were selected by supplementing medium with 800μg/ml of the antibiotic Geneticin (G418 sulphate, GibcoBRL, USA) and cell recovery was monitored daily and the medium changed until no cell death was observed. Establishment of AST-AR CHO stable cell lines were confirmed by PCR using receptor specific primers.
as §2
(§6) For iCa^2+ release (Relative Fluorescent Units, RFU) a Ca^2+ sensitive fluorescent dye Fluo-4 NW (Molecular Probes, Invitrogen) was used. Approximately 50,000 cells were assayed per well and the variation in fluorescence after addition of increasing peptide concentrations (1 nM to 1 μM, diluted in the assay buffer) was measured every 5s over a total of 2 min and fluorescence was excited using a 485/20 nm filter and captured with a 528/20 nm filter in a Biotek Synergy 4 plate reader (Biotek, USA). Background RFU of transfected cells was measured prior to peptide stimulation. The controls consisted of transfected cells exposed to carbachol (100 nM; Sigma, Spain) and non-transfected CHO cells stimulated with 1 μM of each peptide (negative control).
(§7) Quantitative expression data is presented as mean ± SEM of cDNA from 3 independent experiments analysed in duplicate. Significant changes in transcript expression were assessed using a nonparametric Mann-Whitney two-tailed test. Receptor activation is presented as the mean ± SEM of three independent experiments carried out in triplicate and statistical significance was assessed using a Kruskal-Wallis test with Dunn’s Multiple Comparison Test. […]

GPRALS1 [3] = assay: cAMP production (competitive immunoassay) in stable CHO cells expressing GPRALS1; type: cell-based, Anopheles coluzzii; conditions: 1 x PBS/1 mM IBMX, 30 min at 37°C, cryptate labelled anti-cAMP antibody, triplicate on three occasions
Description: as §1, §2, §3, §4

DAR-2 = conditions: D. melanogaster DAR-2; cited from earlier work
GPRALS2 [4] = assay: iCa^2+ release (Fluo-4 NW) in stable CHO cells expressing GPRALS2; type: cell-based, Anopheles coluzzii; conditions: 1 nM to 1 μM (BLAST-2 0.5 μM to 0.005 μM)
Description: as §5, §2, §6, §7

DAR-1 = conditions: D. melanogaster DAR-1; cited from earlier work
galanin receptors (GALR) = conditions: vertebrates; cited from earlier work
Excerpt: AST-A peptides activate specific G-protein coupled receptors (GPCRs), the insect allatostatin-A receptors (AST-ARs) that are considered orthologues of galanin receptors (GALR) in vertebrates. In vertebrates, GALRs have a close evolutionary relationship with kisspeptin receptors (KISSR) and are activated by galanin (GAL) and spexin (SPX), peptides that are unrelated to insect AST-As. AST-A peptide function is relatively well studied but the receptors have only been isolated in a few insect species and their evolution and function is unresolved. In t ...

| Substance | receptor activation, iCa^2+ signalling (GPRALS1 [2]) | receptor activation, iCa^2+ signalling (GPRALS2 [4]) | GALR activation (galanin receptors (GALR)) | further results |
| --- | --- | --- | --- | --- |
| DRLYSFGL-NH2 [BLAST-2, German cockroach Blattella germanica BLAST-2 peptide (DRLYSFGL-NH2)] | activated | activated | – | intracellular cAMP (GPRALS2 [1]): None of the insect peptides induced increased intracellular cAMP; intracellular cAMP (GPRALS1 [3]): None of the insect peptides induced increased intracellular cAMP; iCa^2+ mobilization (DAR-2): stimulates iCa^2+ mobilization; iCa^2+ mobilization (DAR-1): stimulates iCa^2+ mobilization |
| FNFNPFGLRF-NH2 [KISS 2–10, vertebrate KISS peptide, sea bass KISS 2–10 ([…]-NH2)] | failed to activate | failed to activate | – | – |
| YNLNSFGLRY-NH2 [KISS 1–10, vertebrate KISS peptide, sea bass KISS 1–10 ([…]-NH2)] | failed to activate | failed to activate | – | – |
| galanin (GAL): galanin (GAL), peptide activating vertebrate galanin receptors | – | – | activated | – |
| rat 1–29 GAL: 1–29 rat galanin (Sigma-Aldrich, Spain) (GWTLNSAGYLLGPHAIDNHRSFSDKHGLT; ends and bridges not checked; UniProt P10683 33-61, looked up) | failed to activate | failed to activate | – | – |
| spexin (SPX): spexin (SPX), peptide activating vertebrate galanin receptors | – | – | activated | – |

Reference: publication PMC4489612, “Unravelling the Evolution of the Allatostatin-Type A, KISS and Galanin Peptide-Receptor Gene Families in Bilaterians: Insights from Anopheles Mosquitoes” (PLoS ONE, 2015)
